One data set concerns the target T1, His-FGF2/GST-NΔ173 Tec (Homo sapiens, UniProt P42680).
T1 construct: made in house; host or cells: Tec: SF9 insect cells (baculovirus); FGF2: E. coli
The data set can be described thus: Alpha protein-protein interaction assay, FGF2 binding to Tec kinase. Particulars: dose-response, ± SEM, four independent experiments. The method, then: Alpha® protein-protein interaction assays with His-tagged FGF2 (125 nM) and GST-NΔ173 Tec (31.25 nM) (blue spheres) as well as His-tagged MBP-CARP (20 nM) and GST-titin (20 nM) (red squares) were conducted as described in the legend of FIG. 3 and in Experimental Procedures. Additionally, as a technical control, a single fusion protein containing both a GST- and a His-tag was used (20 nM; black triangles). Dose response curves were recorded with the three active compounds (#6, #14 and #21) as well as the two control compounds (#18 and #19) (FIG. 4). For each compound four independent experiments (each of which was conducted in three technical replicates) were performed. Data points were fitted using the non-linear regression function log (inhibitor) vs. response—variable slope (four parameters). Data were evaluated using GraphPad Prism (v5 for Mac OS X). Standard deviations are shown.
A Protein-Protein Interaction Assay Designed to Screen Small Molecule Libraries for Compounds Inhibiting FGF2 Binding to Tec Kinase (Alphascreen® Assay)
To quantify the interaction of FGF2 with Tec kinase under screening conditions, an assay was established based upon Alpha® technology. Briefly, this methodology is based on a pair of proteins of interest that bind to Alpha® donor and acceptor beads, respectively. Upon excitation of donor beads at 680 nm, singlet oxygen species are produced that can diffuse within a range of 200 nm. […] This in turn causes emission of light with a wave length of 520 nm that is detected as the Alpha® signal.
The optimal concentrations of His-tagged FGF2 and GST-tagged NΔ173 Tec in the Alphascreen were determinate in a cross-titration experiment (not shown) to be 31.25 nM and 62.5 nM, respectively. […] All Alpha® assays were carried out in white low volume 384-well plates (#6008280, ProxiPlate™) and read in an EnVision plate reader (Perkin Elmer). […]
AlphaScreen experiments were performed as described above. […] Following 60 min of incubation, Alpha® signals were recorded using an EnVision™ plate reader (PerkinElmer). […]

Data set [1] can be described thus: Observation of compound aggregates in cell culture media. The class given is physicochemical. Conditions: 25 and 50 μM.

“Also recorded” adds a separate entry of the source.

T1 sequence (P42680 174-631 limits assumed, stated change not applied): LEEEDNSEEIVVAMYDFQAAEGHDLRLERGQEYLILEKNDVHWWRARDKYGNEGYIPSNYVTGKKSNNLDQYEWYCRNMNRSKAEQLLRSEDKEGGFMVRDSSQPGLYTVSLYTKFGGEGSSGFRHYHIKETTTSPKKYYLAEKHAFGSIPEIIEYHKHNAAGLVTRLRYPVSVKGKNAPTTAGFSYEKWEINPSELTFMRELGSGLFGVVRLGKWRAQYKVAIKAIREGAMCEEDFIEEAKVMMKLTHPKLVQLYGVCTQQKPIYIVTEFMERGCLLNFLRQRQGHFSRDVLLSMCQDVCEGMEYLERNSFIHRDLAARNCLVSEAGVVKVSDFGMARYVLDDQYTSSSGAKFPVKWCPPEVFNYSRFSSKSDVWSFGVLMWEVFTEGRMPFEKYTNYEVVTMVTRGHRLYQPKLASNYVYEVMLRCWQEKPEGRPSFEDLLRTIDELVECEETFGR

As usually defined, the IC50 is the point on the concentration scale where inhibition reaches its midpoint. A high value points to lower potency. `COC(=O)c1c(C)[nH]c(C(=O)OCc2cc(=O)n3c(C)cccc3n2)c1C` [compound #6] gave an IC50 at His-FGF2/GST-NΔ173 Tec of 8.9 µM.

`CC(=O)c1c(C)[nH]c(C(=O)OCc2cc(=O)n3cc(Br)ccc3n2)c1C` [compound #14] came in with a half-inhibitory concentration (IC50) at His-FGF2/GST-NΔ173 Tec of 7 µM.

As for `CC(=O)c1c(C)[nH]c(C(=O)CSc2nc3cc(Cl)cnc3[nH]2)c1C` [compound #21], in data set [1], the “solubility / aggregates of compound” value is “aggregates of compound #21 were increasingly observable at concentrations of 25 and 50 μM; also recorded: solubility issues”. The molecule also gave an IC50 on His-FGF2/GST-NΔ173 Tec of 11.7 µM.

The record behind these values is US10842793B2, “Inhibitors of the unconventional secretion of fibroblast growth factor 2 (FGF2) by tumor cells and uses thereof” (Universität Heidelberg, priority 2016, dated 2020).
